Tests used:
Format in all cases: cell-based, human
[1] = test system: CD8+ T cells (HLA-A*2402 donors); test: In vitro CTL induction with peptide-pulsed DCs (positive donor number); settings: HLA-A*2402, 9-mer peptides derived from INHBB; positive/total donors
Procedure, shortened: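 Autologous CD8+ T cells from HLA-A*2402 and/or A*0201 donors stimulated with MMC-inactivated monocyte-derived DCs pulsed with 20 μg/ml peptide, at 1:20 DC:T with IL-7, then IL-2 (20 IU/ml); restimulated days 7 and 14. CTL tested day 21 on peptide-pulsed A24-LCL or T2 cells; reported as positive/total donors.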

[2] = test system: peptide-pulsed A24-LCL cells; test: IFN-gamma ELISPOT assay (positive wells); settings: HLA-A*2402, 9-mer peptides derived from INHBB; positive/total wells
Procedure, shortened: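 PBMC-derived DCs from HLA-A*2402 and/or A*0201 donors, pulsed with 20 micro g/ml peptide plus 3 micro g/ml beta 2-microglobulin, stimulated autologous CD8+ T cells three times (days 0, 7, 14). On day 21, responders were tested against peptide-pulsed A24-LCL or T2 cells by IFN-gamma ELISPOT. Values are reported as positive wells/wells tested; CTL lines confirmed by ELISA.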

peptide-pulsed T2 cells [3] = test: IFN-gamma ELISPOT assay (positive wells); settings: HLA-A*0201, 9-mer peptides derived from INHBB; positive/total wells
Procedure, shortened: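 CD8+ T cells from HLA-A*2402 and/or HLA-A*0201 donors were stimulated 1:20 with autologous monocyte-derived DCs pulsed with 20 µg/ml peptide plus β2-microglobulin, in IL-7, with IL-2 added, restimulated on days 7 and 14. On day 21, IFN-γ ELISPOT against peptide-pulsed T2 or A24-LCL cells (1×10^4/well) scored wells as positive, with CTL lines confirmed by ELISA.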

peptide-pulsed T2 cells [4] = test: CTL line establishment, IFN-gamma ELISA; settings: HLA-A*0201, 9-mer peptides derived from INHBB; CTL lines/positive wells
Procedure, shortened: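 CTLs expanded with MMC-inactivated B-lymphoblastoid lines, 40 ng/ml anti-CD3 and IL-2 (120 IU/ml day 1, then 30 IU/ml on days 5, 8, 11). Peptide-pulsed T2 or A24-LCL stimulators (1×10^4/well) incubated with cultured wells or limiting-dilution clones as responders; IFN-gamma detected by ELISPOT (positive wells) and ELISA (established CTL lines).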

With VQCDSCQEL the positive donor number [1] was 0/1, the positive well number [2] was 0/8 and the positive well number (peptide-pulsed T2 cells [3]) was 1/8. The “positive CTL line” value (peptide-pulsed T2 cells [4]) was 0/1.
